Laboratory results taken from patent US12552796B2, “EED inhibitor, and preparation method therefor and use thereof” (SHANGHAITECH UNIVERSITY, priority 2019, dated 2026).

Columns and labels:
[1] = test system: cellular H3K27 methylation; assay: Cellular H3K27 methylation assay (Western blot of H3K27me3 in HeLa cells); type: cell-based; details: Homo sapiens, 72 h; HeLa cells, 3 days, H3K27me3 level by Western blot; read-out: PD IC50
[2] = Pharmacokinetic study in canine; type: in vivo, Beagle dogs; details: Beagle dog; for AUC(0-inf) / Cmax / Tmax / clearance / half-life / MRT inf: male, plasma; for MRT inf: read-out: MRT0-∞
Description: Six ordinary Beagle dogs, male, weighing 10-12 kg, were randomly divided into 2 groups with 3 dogs in each group. The compounds of the present disclosure were administered by oral gavage (PO) and intravenous injection (IV), respectively, and the assay compounds were formulated with the corresponding vehicles.
Dosage: 1 mg/kg for intravenous injection and 5 mg/kg for oral administration.
(§1) Dosing volume: 5 mL/kg for intravenous injection and 10 mL/kg for oral administration.
The oral administration group was fasted overnight (10-14 h) before the assay, and drank water freely. After 4 hours of administration, they were fed uniformly. They were weighed before administration, and the dosage was calculated according to the body weight. 2. Blood collection time point and sample processing:
Intravenous administration: 0.083, 0.25, 0.5, 1, 2, 4, 8, 12 and 24 h after administration;
Oral gavage administration: 0.25, 0.5, 1, 2, 4, 6, 8, 12 and 24 h after administration;
(§2) Blood was collected from the veins of extremities, about 0.5-1 mL each time. The blood was anticoagulated with heparin sodium, placed on ice after collection, and centrifuged within 1 hour to separate the plasma (centrifugation conditions: 6800 g, 6 minutes, 2-8° C.). Plasma samples were stored in a −80° C. freezer prior to analysis.
The concentration of each compound in canine plasma was determined by LC/MS/MS method.
(§3) Through the plasma drug concentration data at different time points, pharmacokinetic parameters were calculated using Phoenix WinNonlin 7.0, thereby providing parameters such as AUC0-t, AUC0-∞, MRT0-∞, Cmax, Tmax, and T1/2 and mean and standard deviation thereof.

[3] = test system: Karpas422 cells; assay: Cell proliferation assay, Karpas422; type: cell-based; details: Homo sapiens, KARPAS-422; Karpas422 cells, cultured to the 14th day; read-out: Anti-proliferation IC50
Description: (§4) Human B-cell non-Hodgkin's lymphoma cells WSU-DLCL2, Karpas422 and Pfeiffer were cultured in cell culture flasks in a sterile incubator with 95% relative humidity and 5% CO2 at 37° C. The medium was RPMI-1640 (Gibco, product No. 31800022) containing 15% fetal bovine serum (FBS, Gibco, product No. 10099141) and 0.1% penicillin/streptomycin solution (P/S). In order to assay the effects of compounds on cell proliferation, cells in exponential growth phase were seeded into a 12-well plate (Nunc, product No. 150628) with 1 mL of medium per well, wherein WSU-DLCL2 and Karpas422 were seeded at a density of 1×10^5 cells/well, and Pfeiffer was seeded at a density of 2×10^5 cells/well. At the same time, different concentrations of compounds were added to the wells that had seeded with cells (6 concentrations were set for each compound at 3-fold serial dilution), and the final concentration of DMSO was 0.1%. After that, the number of viable cells was determined by Vi-CELL (Beckman Coulter) for WSU-DLCL2 and Pfeiffer every 3 days, and for Karpas422 on days 4, 7, and 11, respectively. The cells counted each time were seeded into a new 12-well plate at the same density, and supplemented with fresh medium to 1 mL. Different concentrations of compounds were added at the same time. WSU-DLCL2 and Pfeiffer were cultured to the 9th day, and Karpas422 was cultured to the 14th day. Cell data were collected uniformly, and analyzed with GraphPad prisim5. Dose curves were fitted, and IC50 values of the assay compounds were obtained.

[4] = Pharmacokinetic study in rats; type: in vivo, SD rats; details: rat; for AUC(0-inf) / Cmax / Tmax / clearance / half-life / MRT inf: male, SD, plasma; for MRT inf: read-out: MRT0-∞
Description: Six SPF SD rats, male, weighing 180-220 g, were randomly divided into 2 groups with 3 rats in each group. The compounds of the present disclosure were administered by oral gavage (PO) and intravenous injection (IV), respectively, and the assay compounds were formulated with a vehicle (5% DMSO+10% Solutol+85% pH 4.65 Acetate buffer).
Dosage: 1 mg/kg for intravenous injection and 2 mg/kg for oral administration.
as §1
The oral administration group was fasted overnight (10-14 h) before the assay, and drank water freely. After 4 hours of administration, they were fed uniformly. They were weighed before administration, and the dosage was calculated according to the body weight.
Intravenous administration: 0.083, 0.25, 0.5, 1, 2, 4, 6, 8, 10 and 24 h after administration;
Oral gavage administration: 0.25, 0.5, 1, 2, 4, 6, 8, 10, 12 and 24 h after administration;
as §2, with “jugular vein” for “veins”, “rats at the above set time points,” for “extremities,”, “0.2” for “0.5-1”
The concentration of each compound in rat plasma was determined by LC/MS/MS method.
as §3

[5] = test system: Pfeiffer cells; assay: Cell proliferation assay, Pfeiffer; type: cell-based; details: Homo sapiens, cultured to the 9th day, read-out: Anti-proliferation IC50
Description: as §4

[6] = test system: Karpas 422 human B-cell lymphoma cells; assay: Mouse Karpas422 CDX model, tumor growth; type: in vivo, balb/c nude mice; details: Karpas422 CDX mice; for tumor growth inhibition (TGI %), Day 11 after administration / tumor growth inhibition (TGI %), Day 21 after administration: intragastric; for effect on tumor growth (FIG. 1): different dosages
Description: Female balb/c nude mice aged 6-8 weeks were selected and housed under SPF conditions (i.e., 20-22° C.; 40-70% relative humidity) in individual ventilated cages at constant temperature and humidity. There were 5 or fewer animals in each cage. Animals had access to dry pelleted food sterilized by irradiation and sterile drinking water. Karpas 422 human B-cell lymphoma cells were cultured in RPMI-1640 (Gibco, product No. 31800022) containing 15% fetal bovine serum (FBS, Gibco, product No. 10099141) and 0.1% penicillin/streptomycin solution (P/S). The cells were cultured in a sterile incubator at a temperature of 37° C., a relative humidity of 95%, and 5% CO2. Karpas 422 cells cultured in vitro were maintained at a concentration between 0.5-2×10^6 cells/mL cells in suspension culture and passaged at a 1:3 dilution every 2-4 days. To establish the xenograft model, cells were collected, resuspended in PBS, mixed 1:1 by volume with Matrigel (BD) at a concentration of 5×10^7 cells/mL, and then injected subcutaneously into the right side of balb/c nude mice (Vital River) with 5×10^6 cells per animal. When tumors grew to about 150 mm^3, mice were divided into groups with 6 mice in each group. The mice were administered intragastrically, and the tumor size and mouse body weight were measured twice a week. The two largest diameters of the transplanted tumor, width (W) and length (L), were manually measured with a vernier caliper, and the tumor volume was estimated using the formula: 0.5×L×W^2. After the assay, the mice were euthanized.
The assay compounds were prepared as a suspension in pure water containing 0.5% HPMC+0.5% Tween 80 as a solvent. The dosing volume was 10 mL/kg.
In this study, changes in mouse tumor volume and relative changes in mouse body weight were assayed, and the results were shown in FIGS. 1 and 2.

[7] = test system: WSU-DLCL2 cells; assay: Cell proliferation assay, WSU-DLCL2; type: cell-based; details: Homo sapiens, WSUDLCL2; WSU-DLCL2 cells, cultured to the 9th day; read-out: Anti-proliferation IC50
Description: as §4

| IC50 [1] [nM] | F ([2]; PO, 5 mg/kg) [%] | AUC(0-inf) ([2]; IV, 1 mg/kg) [ng·h/mL] | Cmax ([2]; IV, 1 mg/kg) [ng/mL] | Tmax ([2]; IV, 1 mg/kg) [h] | clearance ([2]; IV, 1 mg/kg) [mL/min/kg] | half-life ([2]; IV, 1 mg/kg) [h] | MRT inf ([2]; IV, 1 mg/kg) [h] | AUC(0-inf) ([2]; PO, 5 mg/kg) [ng·h/mL] | Cmax ([2]; PO, 5 mg/kg) [ng/mL] | Tmax ([2]; PO, 5 mg/kg) [h] | half-life ([2]; PO, 5 mg/kg) [h] | MRT inf ([2]; PO, 5 mg/kg) [h] | IC50 [3] [nM] | AUC(0-inf) ([4]; IV, 1 mg/kg) [ng·h/mL] | Cmax ([4]; IV, 1 mg/kg) [ng/mL] | Tmax ([4]; IV, 1 mg/kg) [h] | clearance ([4]; IV, 1 mg/kg) [mL/min/kg] | half-life ([4]; IV, 1 mg/kg) [h] | MRT inf ([4]; IV, 1 mg/kg) [h] | SMILES | further results |
| --- | --- | --- | --- | --- | --- | --- | --- | --- | --- | --- | --- | --- | --- | --- | --- | --- | --- | --- | --- | --- | --- |
| 34.7 | 62.50 | 8840 | 1220 | 0.08 | 1.92 | 5.87 | 8.39 | 27200 | 2900 | 2 | 5.18 | 7.97 | 74.9 | 2060 | 932 | 0.08 | 8.24 | 2.33 | 2.94 | Fc1ccc2c(c1CNc1ncc(OC3CCOCC3)c3nncn13)CCO2 [HJM-016] | AUC(0-inf) ([4]; PO, 2 mg/kg): 3900 ng·h/mL; Cmax ([4]; PO, 2 mg/kg): 482 ng/mL; Tmax ([4]; PO, 2 mg/kg): 4 h; half-life ([4]; PO, 2 mg/kg): 2.8 h; MRT inf ([4]; PO, 2 mg/kg): 5.58 h; F ([4]; PO, 2 mg/kg): 98.86%; IC50 [5]: 55.7 nM; tumor growth inhibition (TGI %), Day 11 after administration ([6]; 30 mg/kg): 8.5%; tumor growth inhibition (TGI %), Day 21 after administration ([6]; 30 mg/kg): 56.1%; tumor growth inhibition (TGI %), Day 11 after administration ([6]; 100 mg/kg): 52.3%; tumor growth inhibition (TGI %), Day 21 after administration ([6]; 100 mg/kg): 105.39%; effect on tumor growth (FIG. 1) [6]: complete tumor disappearance; IC50 [7]: 86.4 nM |
| 13 | 90.95 | 4500 | 1150 | 0.08 | 3.7 | 4.13 | 5.35 | 20700 | 3700 | 0.5 | 4.29 | 5.75 | 13.5 | 639 | 794 | 0.08 | 26.4 | 1.17 | 1.06 | CN(C(=O)C1CC1)c1cnc(NCc2c(F)ccc3c2CCO3)n2cnnc12 [HJM-045] | AUC(0-inf) ([4]; PO, 2 mg/kg): 628 ng·h/mL; Cmax ([4]; PO, 2 mg/kg): 119 ng/mL; Tmax ([4]; PO, 2 mg/kg): 2.83 h; half-life ([4]; PO, 2 mg/kg): 1.46 h; MRT inf ([4]; PO, 2 mg/kg): 3.51 h; F ([4]; PO, 2 mg/kg): 48.40%; IC50 [5]: 10.5 nM; tumor growth inhibition (TGI %), Day 11 after administration ([6]; 30 mg/kg): 0.25%; tumor growth inhibition (TGI %), Day 21 after administration ([6]; 30 mg/kg): 60.06%; tumor growth inhibition (TGI %), Day 11 after administration ([6]; 100 mg/kg): 10.7%; tumor growth inhibition (TGI %), Day 21 after administration ([6]; 100 mg/kg): 81.43%; effect on tumor growth (FIG. 1) [6]: complete tumor disappearance; IC50 [7]: 9.2 nM |
